# Key:
# Assay in all cases: radiometric filter-binding kinase assay, Kinase HotSpot
# Conditions in all cases: compound 0.5 µM; ATP 10 µM
# [1] = target: CLK1 (human) (UniProt P49759)
# [2] = target: SRPK1 (human) (UniProt Q96SB4)
# [3] = target: TXK (human) (UniProt P42681)
# [4] = target: LRRK2 (human) (UniProt Q5S007)
# [5] = target: IRAK1 (human) (UniProt P51617)
# [6] = target: PAK2 (human) (UniProt Q13177)
# [7] = target: VRK1 (human) (UniProt Q99986)
# [8] = target: DYRK1A (human) (UniProt Q13627)
# [9] = target: CHUK (human) (UniProt O15111)
# [10] = target: TTK (human) (UniProt P33981)
# [11] = target: ERBB4 (human) (UniProt Q15303)
# [12] = target: MAP3K7 TAB1 (human) (UniProt O43318+Q15750)
# [13] = target: JAK2 JH1 JH2 (human) (UniProt O60674)
# [14] = target: PRKD2 (human) (UniProt Q9BZL6)
# [15] = target: MAPK1 (human) (UniProt P28482)
# [16] = target: MKNK2 (human) (UniProt Q9HBH9)
# [17] = target: MARK3 (human) (UniProt P27448)
# [18] = target: ALK (human) (UniProt Q9UM73)
# [19] = target: ERBB2 (human) (UniProt P04626)
# [20] = target: HIPK1 (human) (UniProt Q86Z02)
# [21] = target: RPS6KA4 KD2 (human) (UniProt O75676)
# [22] = target: PAK3 (human) (UniProt O75914)
# [23] = target: CLK2 (human) (UniProt P49760)
# [24] = target: STK39 (human) (UniProt Q9UEW8)
# [25] = target: PRKX (human) (UniProt P51817)
# [26] = target: CSNK1G1 (human) (UniProt Q9HCP0)
# [27] = target: NTRK2 (human) (UniProt Q16620)
# [28] = target: EPHB2 (human) (UniProt P29323)
# [29] = target: NEK4 (human) (UniProt P51957)
# [30] = target: DYRK4 (human) (UniProt Q9NR20)
# [31] = target: MAP2K1 (human) (UniProt Q02750)
# [32] = target: MLTK (human) (UniProt Q9NYL2)
# [33] = target: PDPK1 (human) (UniProt O15530)
# [34] = target: MAP3K11 (human) (UniProt Q16584)
# [35] = target: CDK4 CCND1 (human) (UniProt P24385+P11802)
# [36] = target: TAOK2 (human) (UniProt Q9UL54)
# [37] = target: JAK3 JH1 JH2 (human) (UniProt P52333)
# [38] = target: PTK6 (human) (UniProt Q13882)
# [39] = target: TBK1 (human) (UniProt Q9UHD2)
# [40] = target: CAMK1 (human) (UniProt Q14012)
# [41] = target: PLK2 (human) (UniProt Q9NYY3)
# [42] = target: CLK3 (human) (UniProt P49761)
# Chain of IRAK1 (human) (P51617 whole entry, looked up): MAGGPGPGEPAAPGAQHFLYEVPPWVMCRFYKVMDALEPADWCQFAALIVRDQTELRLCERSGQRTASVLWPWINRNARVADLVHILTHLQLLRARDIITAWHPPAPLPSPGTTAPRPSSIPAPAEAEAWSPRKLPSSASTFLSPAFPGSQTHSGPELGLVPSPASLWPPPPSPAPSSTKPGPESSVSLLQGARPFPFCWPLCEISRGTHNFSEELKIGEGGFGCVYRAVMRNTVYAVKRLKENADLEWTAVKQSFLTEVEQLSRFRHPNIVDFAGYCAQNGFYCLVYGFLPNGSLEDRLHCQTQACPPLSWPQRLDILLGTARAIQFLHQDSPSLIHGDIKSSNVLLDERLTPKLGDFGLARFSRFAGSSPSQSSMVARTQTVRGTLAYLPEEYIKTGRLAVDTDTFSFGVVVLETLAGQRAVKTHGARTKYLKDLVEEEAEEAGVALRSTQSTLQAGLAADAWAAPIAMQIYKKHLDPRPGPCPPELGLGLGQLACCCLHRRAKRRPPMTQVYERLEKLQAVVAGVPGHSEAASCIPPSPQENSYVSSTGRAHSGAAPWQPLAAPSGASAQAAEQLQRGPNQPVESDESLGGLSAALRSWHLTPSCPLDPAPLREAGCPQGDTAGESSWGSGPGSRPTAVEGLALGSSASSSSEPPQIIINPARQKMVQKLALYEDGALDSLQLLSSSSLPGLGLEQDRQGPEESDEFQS
# Chain of MKNK2 (human) (Q9HBH9 whole entry, looked up): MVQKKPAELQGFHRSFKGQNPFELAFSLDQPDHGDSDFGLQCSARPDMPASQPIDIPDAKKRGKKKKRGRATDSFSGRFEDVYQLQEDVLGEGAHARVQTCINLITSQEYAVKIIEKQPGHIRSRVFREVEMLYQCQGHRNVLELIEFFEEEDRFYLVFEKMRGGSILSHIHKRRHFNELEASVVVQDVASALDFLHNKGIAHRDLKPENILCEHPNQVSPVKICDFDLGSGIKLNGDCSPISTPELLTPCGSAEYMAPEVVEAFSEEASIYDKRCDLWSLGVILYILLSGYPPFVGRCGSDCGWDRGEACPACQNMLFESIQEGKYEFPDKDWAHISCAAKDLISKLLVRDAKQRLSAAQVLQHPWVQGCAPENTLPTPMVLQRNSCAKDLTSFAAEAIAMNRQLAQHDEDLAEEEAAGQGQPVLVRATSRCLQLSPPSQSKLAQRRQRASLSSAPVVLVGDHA
# Chain of MLTK (human) (Q9NYL2 whole entry, looked up): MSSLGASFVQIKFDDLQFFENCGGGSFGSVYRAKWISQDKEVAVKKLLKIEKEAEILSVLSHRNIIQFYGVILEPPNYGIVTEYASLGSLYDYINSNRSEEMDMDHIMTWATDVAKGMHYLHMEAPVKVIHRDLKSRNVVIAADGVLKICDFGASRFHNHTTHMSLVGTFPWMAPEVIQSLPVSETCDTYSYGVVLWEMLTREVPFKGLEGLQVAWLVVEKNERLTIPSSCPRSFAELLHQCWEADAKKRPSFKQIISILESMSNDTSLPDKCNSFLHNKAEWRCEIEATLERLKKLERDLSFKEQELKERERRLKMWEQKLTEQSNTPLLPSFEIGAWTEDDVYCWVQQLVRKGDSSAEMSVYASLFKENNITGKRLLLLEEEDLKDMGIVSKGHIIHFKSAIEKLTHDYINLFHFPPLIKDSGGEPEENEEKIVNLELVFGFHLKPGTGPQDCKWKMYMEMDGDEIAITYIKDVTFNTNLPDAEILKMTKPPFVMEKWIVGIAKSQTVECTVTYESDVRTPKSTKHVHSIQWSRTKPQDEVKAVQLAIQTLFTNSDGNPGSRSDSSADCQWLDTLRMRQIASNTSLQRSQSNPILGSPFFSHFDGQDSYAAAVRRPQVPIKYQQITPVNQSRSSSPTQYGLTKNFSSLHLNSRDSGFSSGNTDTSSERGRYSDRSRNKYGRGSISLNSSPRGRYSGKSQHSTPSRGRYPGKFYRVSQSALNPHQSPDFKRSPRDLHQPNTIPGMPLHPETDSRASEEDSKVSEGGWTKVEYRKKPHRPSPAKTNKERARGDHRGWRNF
# Chain of CSNK1G1 (human) (Q9HCP0 whole entry, looked up): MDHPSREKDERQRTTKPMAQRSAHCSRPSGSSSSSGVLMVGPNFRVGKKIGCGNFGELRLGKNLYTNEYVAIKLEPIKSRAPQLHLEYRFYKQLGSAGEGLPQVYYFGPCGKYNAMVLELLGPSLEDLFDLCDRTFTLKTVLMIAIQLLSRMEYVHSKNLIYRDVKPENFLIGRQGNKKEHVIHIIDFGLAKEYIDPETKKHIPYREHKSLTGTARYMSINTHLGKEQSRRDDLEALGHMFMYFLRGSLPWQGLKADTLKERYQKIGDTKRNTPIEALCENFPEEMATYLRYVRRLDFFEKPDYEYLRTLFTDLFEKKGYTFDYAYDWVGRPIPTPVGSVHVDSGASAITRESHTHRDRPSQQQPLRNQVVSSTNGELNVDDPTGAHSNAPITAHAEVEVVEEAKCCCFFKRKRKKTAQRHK
# Chain of CAMK1 (human) (Q14012 whole entry, looked up): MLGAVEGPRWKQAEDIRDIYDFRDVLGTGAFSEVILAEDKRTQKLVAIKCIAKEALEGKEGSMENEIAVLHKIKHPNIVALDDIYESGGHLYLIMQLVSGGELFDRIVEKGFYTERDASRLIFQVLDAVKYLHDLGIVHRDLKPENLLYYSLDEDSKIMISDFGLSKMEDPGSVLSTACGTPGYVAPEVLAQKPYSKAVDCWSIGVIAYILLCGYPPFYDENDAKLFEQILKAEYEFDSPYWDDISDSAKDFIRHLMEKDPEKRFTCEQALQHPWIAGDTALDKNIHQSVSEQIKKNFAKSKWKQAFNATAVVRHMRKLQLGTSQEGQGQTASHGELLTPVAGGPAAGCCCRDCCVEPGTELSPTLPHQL
# Chain of TTK (human) (P33981 whole entry, looked up): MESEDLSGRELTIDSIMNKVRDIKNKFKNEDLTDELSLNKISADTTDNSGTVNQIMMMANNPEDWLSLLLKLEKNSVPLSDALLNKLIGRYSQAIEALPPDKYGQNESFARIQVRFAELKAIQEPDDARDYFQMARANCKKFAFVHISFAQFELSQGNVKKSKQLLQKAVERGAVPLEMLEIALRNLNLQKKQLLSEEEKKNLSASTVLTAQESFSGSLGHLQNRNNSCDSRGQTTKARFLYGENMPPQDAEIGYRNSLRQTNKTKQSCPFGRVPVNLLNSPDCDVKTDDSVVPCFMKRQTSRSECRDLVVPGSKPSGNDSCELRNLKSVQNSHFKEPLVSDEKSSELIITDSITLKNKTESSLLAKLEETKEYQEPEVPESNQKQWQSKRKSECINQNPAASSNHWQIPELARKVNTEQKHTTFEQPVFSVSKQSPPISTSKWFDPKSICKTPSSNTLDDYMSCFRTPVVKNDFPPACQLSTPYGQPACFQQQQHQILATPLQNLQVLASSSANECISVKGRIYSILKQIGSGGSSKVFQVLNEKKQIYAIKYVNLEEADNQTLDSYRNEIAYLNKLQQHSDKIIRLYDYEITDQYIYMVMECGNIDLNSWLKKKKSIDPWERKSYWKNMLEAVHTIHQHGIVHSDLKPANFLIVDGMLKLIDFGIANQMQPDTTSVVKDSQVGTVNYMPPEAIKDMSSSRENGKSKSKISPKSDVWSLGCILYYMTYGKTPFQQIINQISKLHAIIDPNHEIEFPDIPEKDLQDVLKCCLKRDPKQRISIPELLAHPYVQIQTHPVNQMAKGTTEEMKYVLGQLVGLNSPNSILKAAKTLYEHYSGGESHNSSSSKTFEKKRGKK
# Chain of CDK4 CCND1 (human) (P11802 whole entry, looked up): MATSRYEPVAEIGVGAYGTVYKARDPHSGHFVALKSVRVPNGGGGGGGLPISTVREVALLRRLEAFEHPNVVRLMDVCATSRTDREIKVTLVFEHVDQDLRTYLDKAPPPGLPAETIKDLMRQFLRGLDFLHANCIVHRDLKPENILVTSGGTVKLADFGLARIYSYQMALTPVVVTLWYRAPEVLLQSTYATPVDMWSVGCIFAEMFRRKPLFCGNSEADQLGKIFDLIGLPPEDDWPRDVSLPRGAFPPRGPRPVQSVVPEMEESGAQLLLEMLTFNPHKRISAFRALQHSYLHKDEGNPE
# Chain of CDK4 CCND1 (human) (P24385 whole entry, looked up): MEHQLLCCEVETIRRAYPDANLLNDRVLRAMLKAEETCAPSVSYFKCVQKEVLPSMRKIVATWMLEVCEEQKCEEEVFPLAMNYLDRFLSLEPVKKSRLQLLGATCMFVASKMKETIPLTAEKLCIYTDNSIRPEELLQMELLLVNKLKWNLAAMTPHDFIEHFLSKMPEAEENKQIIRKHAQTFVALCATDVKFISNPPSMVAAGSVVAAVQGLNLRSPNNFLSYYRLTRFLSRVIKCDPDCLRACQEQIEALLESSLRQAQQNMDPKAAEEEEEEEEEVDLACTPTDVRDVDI
# Chain of TXK (human) (P42681 whole entry, looked up): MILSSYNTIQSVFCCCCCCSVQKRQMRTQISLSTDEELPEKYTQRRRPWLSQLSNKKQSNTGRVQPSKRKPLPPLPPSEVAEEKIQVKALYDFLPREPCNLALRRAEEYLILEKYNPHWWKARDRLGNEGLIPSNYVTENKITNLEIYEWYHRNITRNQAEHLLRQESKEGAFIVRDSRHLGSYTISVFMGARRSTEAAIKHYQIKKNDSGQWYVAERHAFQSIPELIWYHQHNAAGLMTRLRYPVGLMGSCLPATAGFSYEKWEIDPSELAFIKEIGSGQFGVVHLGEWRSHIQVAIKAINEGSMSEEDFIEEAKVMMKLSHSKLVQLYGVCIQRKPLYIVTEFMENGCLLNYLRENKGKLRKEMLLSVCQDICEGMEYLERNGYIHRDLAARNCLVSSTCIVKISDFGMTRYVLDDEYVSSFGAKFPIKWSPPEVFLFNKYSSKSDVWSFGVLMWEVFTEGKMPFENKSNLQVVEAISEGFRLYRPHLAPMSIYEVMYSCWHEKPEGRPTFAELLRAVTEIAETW
structure (smiles),measurement,setting,value
CC(=O)c1ccc(N2CCOCC2)cc1O,residual activity,[1],110%
same,residual activity,[2],90.7%
same,residual activity,[3],103%
same,residual activity,[4],96.1%
same,residual activity,[5],111%
same,residual activity,[6],98.8%
same,residual activity,[7],98.1%
same,residual activity,[8],98%
same,residual activity,[9],96.2%
same,residual activity,[10],103%
same,residual activity,[11],107%
same,residual activity,[12],98.6%
same,residual activity,[13],93.6%
same,residual activity,[14],97.4%
same,residual activity,[15],97.6%
same,residual activity,[16],90.7%
same,residual activity,[17],108%
same,residual activity,[18],106%
same,residual activity,[19],98.2%
same,residual activity,[20],93.9%
same,residual activity,[21],103%
same,residual activity,[22],93.9%
same,residual activity,[23],102%
same,residual activity,[24],90.9%
same,residual activity,[25],105%
same,residual activity,[26],91.8%
same,residual activity,[27],92.1%
same,residual activity,[28],82.5%
same,residual activity,[29],103%
same,residual activity,[30],95.6%
same,residual activity,[31],95.2%
same,residual activity,[32],97.8%
same,residual activity,[33],111%
same,residual activity,[34],94.8%
same,residual activity,[35],94.4%
same,residual activity,[36],107%
same,residual activity,[37],104%
same,residual activity,[38],104%
same,residual activity,[39],99.1%
same,residual activity,[40],102%
same,residual activity,[41],104%
same,residual activity,[42],101%
Oc1cccc(-c2nc(N3CCOCC3)c3oc4ncccc4c3n2)c1,residual activity,[1],85.2%
same,residual activity,[2],105%
same,residual activity,[3],94.8%
same,residual activity,[4],101%
same,residual activity,[5],84.2%
same,residual activity,[6],97.5%
same,residual activity,[7],98.4%
same,residual activity,[8],94.3%
same,residual activity,[9],94.8%
same,residual activity,[10],93.3%
same,residual activity,[11],97.6%
same,residual activity,[12],97.4%
same,residual activity,[13],92.6%
same,residual activity,[14],93.8%
same,residual activity,[15],89%
same,residual activity,[16],92.6%
same,residual activity,[17],97.4%
same,residual activity,[18],90.5%
same,residual activity,[19],105%
same,residual activity,[20],101%
same,residual activity,[21],104%
same,residual activity,[22],97.5%
same,residual activity,[23],88%
same,residual activity,[24],105%
same,residual activity,[25],96.2%
same,residual activity,[26],89.4%
same,residual activity,[27],90.2%
same,residual activity,[28],88.6%
same,residual activity,[29],90.4%
same,residual activity,[30],96.6%
same,residual activity,[31],97.7%
same,residual activity,[32],96.2%
same,residual activity,[33],103%
same,residual activity,[34],96.5%
same,residual activity,[35],102%
same,residual activity,[36],92.2%
same,residual activity,[37],99%
same,residual activity,[38],80.8%
same,residual activity,[39],93%
same,residual activity,[40],101%
same,residual activity,[41],94.7%
same,residual activity,[42],93.1%
O=C1NC(=O)/C(=C/c2ccc3c(c2)OC(F)(F)O3)S1,residual activity,[1],102%
same,residual activity,[2],105%
same,residual activity,[3],95.4%
same,residual activity,[4],103%
same,residual activity,[5],84.2%
same,residual activity,[6],99.9%
same,residual activity,[7],85.6%
same,residual activity,[8],84.6%
same,residual activity,[9],88.4%
same,residual activity,[10],102%
same,residual activity,[11],99.5%
same,residual activity,[12],95.3%
same,residual activity,[13],92.9%
same,residual activity,[14],91.5%
same,residual activity,[15],85.7%
same,residual activity,[16],98.3%
same,residual activity,[17],92.3%
same,residual activity,[18],83.4%
same,residual activity,[19],102%
same,residual activity,[20],95.9%
same,residual activity,[21],108%
same,residual activity,[22],93.1%
same,residual activity,[23],96.6%
same,residual activity,[24],110%
same,residual activity,[25],101%
same,residual activity,[26],75.5%
same,residual activity,[27],91.9%
same,residual activity,[28],95.8%
same,residual activity,[29],97.8%
same,residual activity,[30],97.7%
same,residual activity,[31],95.6%
same,residual activity,[32],97.6%
same,residual activity,[33],100%
same,residual activity,[34],97.8%
same,residual activity,[35],97.1%
same,residual activity,[36],96.9%
same,residual activity,[37],98.6%
same,residual activity,[38],94.8%
same,residual activity,[39],93.3%
same,residual activity,[40],89.9%
same,residual activity,[41],99.7%
same,residual activity,[42],96.8%
